Measurements as given in patent US12544373B2, “Treatment of cancer, inflammatory diseases and autoimmune diseases” (Usher III Initiative, Inc., priority 2020, dated 2026).
pIC50: −log10 of the molar value. Like-named read-outs stand apart in the source and are kept apart here.

Key:
Type in all cases: cell-based, human
Settings in all cases: for T/C %: 72 h
SXFS 1301 = experiment: CellTiter-Blue Cell Viability Assay (Example 2), soft tissue sarcoma
Source text: (§1) The CellTiter-Blue® Cell Viability Assay was used to assess the viability of cells from various cancer cell lines, in the presence or absence of Compound 85 (at different concentrations). This assay provides a homogeneous, fluorometric method for estimating the number of viable cells present in multi-well plates. Viable cells retain the ability to reduce resazurin to resorufin, which is highly fluorescent. […] The fluorescence produced is proportional to the number of viable cells. There is a linear relationship between cell number and fluorescence.
(§2) Cancer cells (see Table 6) were harvested from exponential phase cultures, counted and plated in 96 well flat-bottom microtiter plates, at a cell density 6,000-20,000 cells/well, depending on the cell line's growth rate. The culture medium was supplemented with 10% (v/v) foetal calf serum and 50 μg/mL gentamicin (140 μL/well). Cultures were incubated at 37° C. and 5% CO2 in a humidified atmosphere.
(§3) Compound 85 was serially diluted in DMSO, and five Compound 85 concentrations in half-log increments were used: 0.03 μM, 0.09 μM, 0.30 μM, 1.0 μM, and 3.0 μM. After 24 h, 10 μL of Compound 85 (dissolved in DMSO) or control (DMSO) medium were added, in duplicates, and left on the cells for another 72 h. Compound 85 solutions were added to the assay plates using a Tecan Freedom EVO 200 robotic platform. The DMSO concentration was kept constant at 0.3% v/v across the assay plate.
(§4) After incubation of up to 72 hours, fluorescence (FU) was measured using the EnSpire® multimode plate reader (Perkin Elmer) (excitation λ=570 nm, emission λ=600 nm).
(§5) Cancer cell lines used: Compound 85's anti-cancer effect was tested in 20 human cancer-cell lines representing nine cancer types (Table 6).
(§6) The percentage of viable cells in the presence of Compound 85 (Test condition, T), at different concentrations, are presented in Table 7 and expressed as a percentage of the number of viable cells in the presence of DMSO without Compound 85 (Control condition, C).
(§7) The relative IC50 is determined as the Compound 85 concentration giving a response halfway between the maximum cell viability signal (i.e., a 100% cell viability, no Compound 85 response) and the minimal viability signal (i.e. maximum cell viability inhibition achieved by Compound 85), in a sigmoidal concentration-effect curve.
(§8) The absolute IC50 is determined as the concentration that is associated with a T/C ratio of 50%.

SXFS Hs 729 = experiment: as above
Source text: as §1, §2, §3, §4, §5, §6, §7, §8

MEXF 1737 = experiment: CellTiter-Blue Cell Viability Assay (Example 2), melanoma
Source text: as §1, §2, §3, §4, §5, §6, §7, §8

MEXF 1341 = experiment: as above
Source text: as §1, §2, §3, §4, §5, §6, §7, §8

OVXF 899 = experiment: CellTiter-Blue Cell Viability Assay (Example 2), ovarian
Source text: as §1, §2, §3, §4, §5, §6, §7, §8

OVXF A2780 = experiment: as above
Source text: as §1, §2, §3, §4, §5, §6, §7, §8

CNXF 498 = experiment: CellTiter-Blue Cell Viability Assay (Example 2), glioblastoma
Source text: as §1, §2, §3, §4, §5, §6, §7, §8

CNXF U-87 MG = experiment: as above
Source text: as §1, §2, §3, §4, §5, §6, §7, §8

With `CC(C)(O)Cn1nc(-c2ccccc2)c2c(Cl)c(-c3ccccc3)nnc21` [Compound 85] the “Absolute IC70” value (SXFS 1301) was 570 nM, the “Relative IC70” value (SXFS 1301) was 558 nM and the T/C % (SXFS 1301; 0.03 μM) was 105%. It also gave a T/C % (SXFS 1301; 0.095 μM) of 106%, a T/C % (SXFS 1301; 0.3 μM) of 102% and a T/C % (SXFS 1301; 0.95 μM) of 3%. The T/C % (SXFS 1301; 3.0 μM) was 2%, the pIC50 (SXFS 1301; read-out: Absolute IC50) was 6.30 and the pIC50 (SXFS 1301; read-out: Relative IC50) was 6.31. The “Absolute IC70” value (SXFS Hs 729) was 808 nM, the “Relative IC70” value (SXFS Hs 729) was 789 nM and the T/C % (SXFS Hs 729; 0.03 μM) was 99%. The T/C % (SXFS Hs 729; 0.095 μM) was 99%, the T/C % (SXFS Hs 729; 0.3 μM) was 99% and the T/C % (SXFS Hs 729; 0.95 μM) was 13%. The T/C % (SXFS Hs 729; 3.0 μM) was 7%, the pIC50 (SXFS Hs 729; read-out: Absolute IC50) was 6.13 and the pIC50 (SXFS Hs 729; read-out: Relative IC50) was 6.14. For the same compound, the “Absolute IC70” value (MEXF 1737) was 925 nM, the “Relative IC70” value (MEXF 1737) was 864 nM and the T/C % (MEXF 1737; 0.03 μM) was 99%. It also gave a T/C % (MEXF 1737; 0.095 μM) of 97%, a T/C % (MEXF 1737; 0.3 μM) of 101% and a T/C % (MEXF 1737; 0.95 μM) of 27%. It also gave a T/C % (MEXF 1737; 3.0 μM) of 16%, a pIC50 (MEXF 1737; read-out: Absolute IC50) of 6.08 and a pIC50 (MEXF 1737; read-out: Relative IC50) of 6.10. For the same compound, the “Absolute IC70” value (MEXF 1341) was 445 nM, the “Relative IC70” value (MEXF 1341) was 451 nM and the T/C % (MEXF 1341; 0.03 μM) was 97%. For the same compound, the T/C % (MEXF 1341; 0.095 μM) was 91%, the T/C % (MEXF 1341; 0.3 μM) was 82% and the T/C % (MEXF 1341; 0.95 μM) was 0%. The T/C % (MEXF 1341; 3.0 μM) was 0%, the pIC50 (MEXF 1341; read-out: Absolute IC50) was 6.41 and the pIC50 (MEXF 1341; read-out: Relative IC50) was 6.40. For the same compound, the “Absolute IC70” value (OVXF 899) was 418 nM, the “Relative IC70” value (OVXF 899) was 423 nM and the T/C % (OVXF 899; 0.03 μM) was 98%. The T/C % (OVXF 899; 0.095 μM) was 94%, the T/C % (OVXF 899; 0.3 μM) was 65% and the T/C % (OVXF 899; 0.95 μM) was 1%. It also gave a T/C % (OVXF 899; 3.0 μM) of 0%, a pIC50 (OVXF 899; read-out: Absolute IC50) of 6.46 and a pIC50 (OVXF 899; read-out: Relative IC50) of 6.45. For the same compound, the “Absolute IC70” value (OVXF A2780) was 463 nM, the “Relative IC70” value (OVXF A2780) was 463 nM and the T/C % (OVXF A2780; 0.03 μM) was 102%. The T/C % (OVXF A2780; 0.095 μM) was 96%, the T/C % (OVXF A2780; 0.3 μM) was 87% and the T/C % (OVXF A2780; 0.95 μM) was 0%. For the same compound, the T/C % (OVXF A2780; 3.0 μM) was 0%, the pIC50 (OVXF A2780; read-out: Absolute IC50) was 6.39 and the pIC50 (OVXF A2780; read-out: Relative IC50) was 6.39. The “Absolute IC70” value (CNXF 498) was 1901 nM, the “Relative IC70” value (CNXF 498) was 1868 nM and the T/C % (CNXF 498; 0.03 μM) was 106%. The T/C % (CNXF 498; 0.095 μM) was 107%, the T/C % (CNXF 498; 0.3 μM) was 113% and the T/C % (CNXF 498; 0.95 μM) was 2%. The T/C % (CNXF 498; 3.0 μM) was 1%, the pIC50 (CNXF 498; read-out: Absolute IC50) was 5.76 and the pIC50 (CNXF 498; read-out: Relative IC50) was 5.77. For the same compound, the “Absolute IC70” value (CNXF U-87 MG) was 993.8 nM, the “Relative IC70” value (CNXF U-87 MG) was 986.9 nM and the T/C % (CNXF U-87 MG; 0.03 μM) was 99%. The T/C % (CNXF U-87 MG; 0.095 μM) was 102%, the T/C % (CNXF U-87 MG; 0.3 μM) was 102% and the T/C % (CNXF U-87 MG; 0.95 μM) was 1%. It also gave a T/C % (CNXF U-87 MG; 3.0 μM) of 4%, a pIC50 (CNXF U-87 MG; read-out: Absolute IC50) of 6.03 and a pIC50 (CNXF U-87 MG; read-out: Relative IC50) of 6.03.
